{
  "source": "ChEMBL document CHEMBL6121047",
  "about": "“Design, Synthesis, and Evaluation of Selective PDE4 Inhibitors for the Therapy of Pulmonary Injury” (J Med Chem, 2025)",
  "key": {"[1]": {"test": "Half life in Sprague-Dawley rat at 5 mg/kg, iv measured upto 24 hrs by LC-MS/MS analysis", "type": "ADME, organism-based", "conditions": "in vivo"}, "[2]": {"test": "Acute toxicity in Sprague-Dawley rat assessed as effect on apparent kidney coefficient change at 1 g/Kg, po administered via gavage", "type": "organism-based", "conditions": "in vivo, 1000 mg/kg"}, "[3]": {"test": "Acute toxicity in Sprague-Dawley rat assessed as effect on apparent lung coefficient change at 1 g/Kg, po administered via gavage", "type": "organism-based", "conditions": "in vivo, 1000 mg/kg"}, "[4]": {"tested_on": "NCI-H292", "test": "Anti-inflammatory activity against EGF-induced human NCI-H292 cells assessed as decrease in MUC5AC mRNA expression by RT-qPCR analysis", "type": "functional, cell-based", "conditions": "dose 10-50 µM"}, "[5]": {"tested_on": "Mus musculus", "test": "Anti-inflammatory activity against LPS-induced acute lung injury male BALB/c mouse model assessed as relaxation of alveolar in lung at 8 to 32 mg/kg administered once a day via gavage for 7 days followed by LPS stimulation and measured after 24 hrs by H and E staining based microscopic analysis", "type": "functional, organism-based", "conditions": "dose 8-32 mg/kg, time 192.0 hrs"}, "[6]": {"test": "Toxicity in female Beagle dog assessed as drug tolerance at 1 to 3 mg/kg, po administered once via gavage and measured within 24 hrs", "type": "organism-based, Canis lupus familiaris", "conditions": "in vivo, dose 1-3 mg/kg"}, "[7]": {"test": "Tmax in Sprague-Dawley rat at 10 mg/kg, po measured upto 24 hrs by LC-MS/MS analysis", "type": "ADME, organism-based", "conditions": "in vivo"}, "[8]": {"tested_on": "Mus musculus", "test": "Anti-inflammatory activity against cigarette-smoke/LPS-induced COPD male C57BL/6 mouse model assessed as reduction in IL-6 level in BALF at 5 mg/kg pretreated with cigarette smoke exposure for 21 weeks with subsequent LPS induction twice on the first and 15th day followed by compound administration every day via gavage for 4 weeks", "type": "functional, organism-based"}, "[9]": {"tested_on": "RAW264.7", "test": "Anti-inflammatory activity in LPS-induced mouse RAW264.7 cells assessed as decrease in p-p38 MAPK protein level by Western blotting analysis", "type": "functional, cell-based"}, "[10]": {"test": "Metabolic stability in rat liver microsomes assessed as half life incubated for 4 hrs in presence of NADPH by LC-MS analysis", "type": "ADME, Microsome"}, "[11]": {"test": "Toxicity in female Beagle dog assessed as emesis at 1 to 3 mg/kg, po administered once via gavage and measured within 24 hrs", "type": "organism-based, Canis lupus familiaris", "conditions": "in vivo, dose 1-3 mg/kg"}, "[12]": {"test": "AUC (0 to t) in Sprague-Dawley rat at 5 mg/kg, iv measured upto 24 hrs by LC-MS/MS analysis", "type": "ADME, organism-based", "conditions": "in vivo"}, "[13]": {"tested_on": "Mus musculus", "test": "Anti-inflammatory activity against LPS-induced acute lung injury male BALB/c mouse model assessed as reduction in IL-6 level in BALF at 8 to 32 mg/kg administered once a day via gavage for 7 days followed by LPS stimulation and measured after 24 hrs", "type": "functional, organism-based", "conditions": "dose 8-32 mg/kg, time 192.0 hrs"}, "[14]": {"test": "Metabolic stability in dog liver microsomes assessed as half life incubated for 4 hrs in presence of NADPH by LC-MS analysis", "type": "ADME, Canis lupus familiaris, Microsome"}, "[15]": {"test": "Acute toxicity in Sprague-Dawley rat assessed as pathological changes in liver at 1 g/Kg, po administered via gavage by H and E staining based analysis", "type": "organism-based", "conditions": "in vivo, 1000 mg/kg"}, "[16]": {"test": "AUC (0 to infinity) in Sprague-Dawley rat at 5 mg/kg, iv measured upto 24 hrs by LC-MS/MS analysis", "type": "ADME, organism-based", "conditions": "in vivo"}, "[17]": {"test": "Oral bioavailability in Sprague-Dawley rat at 10 mg/kg measured upto 24 hrs by LC-MS/MS analysis", "type": "ADME, organism-based", "conditions": "in vivo"}, "[18]": {"tested_on": "Mus musculus", "test": "Antitussive activity in male BALB/c mouse model assessed as delay in cough incubation period at 32 mg/kg administered every day via gavage for 7 days at 1 hrs post last dose and measured within 3 min", "type": "functional, organism-based", "conditions": "time 169.05 hrs"}, "[19]": {"tested_on": "RAW264.7", "test": "cells", "conditions": "Mus musculus"}, "[20]": {"test": "AUC (0 to infinity) in Sprague-Dawley rat at 10 mg/kg, po measured upto 24 hrs by LC-MS/MS analysis", "type": "ADME, organism-based", "conditions": "in vivo"}, "[21]": {"test": "Metabolic stability in mouse liver microsomes assessed as half life incubated for 4 hrs in presence of NADPH by LC-MS analysis", "type": "ADME, Microsome"}, "[22]": {"test": "Acute toxicity in Sprague-Dawley rat assessed as pathological changes in lung at 1 g/Kg, po administered via gavage by H and E staining based analysis", "type": "organism-based", "conditions": "in vivo, 1000 mg/kg"}, "[23]": {"test": "Toxicity in female Beagle dog assessed as side effects at 1 to 3 mg/kg, po administered once via gavage and measured within 24 hrs", "type": "organism-based, Canis lupus familiaris", "conditions": "in vivo, dose 1-3 mg/kg"}, "[24]": {"tested_on": "Mus musculus", "test": "Antifibrotic activity against LPS-induced acute lung injury male BALB/c mouse model assessed as decrease in collagen deposition at 8 to 32 mg/kg administered once a day via gavage for 7 days followed by LPS stimulation and measured after 24 hrs by masson staining based microscopic analysis", "type": "functional, organism-based", "conditions": "dose 8-32 mg/kg, time 192.0 hrs"}, "[25]": {"target": "T1, 3',5'-cyclic-AMP phosphodiesterase 4B (Homo sapiens, UniProt Q07343)", "T1 sequence (Q07343 whole entry)": "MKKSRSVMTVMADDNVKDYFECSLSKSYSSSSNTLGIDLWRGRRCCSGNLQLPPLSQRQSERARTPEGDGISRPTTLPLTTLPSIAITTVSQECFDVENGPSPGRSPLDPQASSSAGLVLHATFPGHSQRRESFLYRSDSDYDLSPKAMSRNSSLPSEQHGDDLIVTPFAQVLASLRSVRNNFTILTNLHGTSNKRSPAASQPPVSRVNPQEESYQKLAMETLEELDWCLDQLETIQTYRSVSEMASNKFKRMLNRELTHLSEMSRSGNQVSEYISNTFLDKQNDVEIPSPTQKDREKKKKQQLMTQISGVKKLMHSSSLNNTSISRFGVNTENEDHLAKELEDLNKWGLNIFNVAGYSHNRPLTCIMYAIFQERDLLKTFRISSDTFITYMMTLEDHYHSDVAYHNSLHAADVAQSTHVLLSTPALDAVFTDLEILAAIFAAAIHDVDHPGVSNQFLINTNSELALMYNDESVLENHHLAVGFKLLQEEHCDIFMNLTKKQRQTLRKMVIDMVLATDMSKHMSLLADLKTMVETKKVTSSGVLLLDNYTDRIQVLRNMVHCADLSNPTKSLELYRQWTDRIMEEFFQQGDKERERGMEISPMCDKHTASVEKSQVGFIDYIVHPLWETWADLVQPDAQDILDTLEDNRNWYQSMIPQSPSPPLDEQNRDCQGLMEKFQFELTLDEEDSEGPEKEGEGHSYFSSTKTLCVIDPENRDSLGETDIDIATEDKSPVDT", "test": "Inhibition of recombinant full length PDE4B (unknown origin) using FAM-cAMP as substrate at 1 uM preincubated with compound for compound for 15 mins followed by substrate addition and measured after 30 mins by Envision multilabel reader analysis relative to control", "conditions": "time 45.0 min"}, "[26]": {"tested_on": "RAW264.7", "test": "Anti-inflammatory activity in LPS-induced mouse RAW264.7 cells assessed as inhibition of TNF-alpha secretion level at 10 uM preincubated with compound for 1 hr followed by LPS addition and measured after 24 hrs by ELISA", "type": "functional, cell-based", "conditions": "time 25.0 hrs"}, "[27]": {"test": "Acute toxicity in Sprague-Dawley rat assessed as pathological changes in heart at 1 g/Kg, po administered via gavage by H and E staining based analysis", "type": "organism-based", "conditions": "in vivo, 1000 mg/kg"}, "[28]": {"test": "Acute toxicity in Sprague-Dawley rat assessed as effect on apparent spleen coefficient change at 1 g/Kg, po administered via gavage", "type": "organism-based", "conditions": "in vivo, 1000 mg/kg"}, "[29]": {"test": "Acute toxicity in Sprague-Dawley rat assessed as effect on apparent liver coefficient change at 1 g/Kg, po administered via gavage", "type": "organism-based", "conditions": "in vivo, 1000 mg/kg"}, "[30]": {"tested_on": "Mus musculus", "test": "Anti-inflammatory activity against LPS-induced acute lung injury male BALB/c mouse model assessed as reduction in total cell counts in BALF at 8 to 32 mg/kg administered once a day via gavage for 7 days followed by LPS stimulation and measured after 24 hrs", "type": "functional, organism-based", "conditions": "dose 8-32 mg/kg, time 192.0 hrs"}, "[31]": {"tested_on": "Mus musculus", "test": "Anti-inflammatory activity against LPS-induced acute lung injury male BALB/c mouse model assessed as enlarged bronchiole tubes in lung at 8 to 32 mg/kg administered once a day via gavage for 7 days followed by LPS stimulation and measured after 24 hrs by H and E staining based microscopic analysis", "type": "functional, organism-based", "conditions": "dose 8-32 mg/kg, time 192.0 hrs"}, "[32]": {"target": "T1, 3',5'-cyclic-AMP phosphodiesterase 4B", "test": "Inhibition of PDE4B (unknown origin) using FAM-cAMP as substrate preincubated with compound for compound for 15 mins followed by substrate addition and measured after 30 mins by Envision multilabel reader analysis"}, "[33]": {"tested_on": "Mus musculus", "test": "Anti-inflammatory activity against cigarette-smoke/LPS-induced COPD male C57BL/6 mouse model assessed as reduction in TNF-alpha level in BALF at 5 mg/kg pretreated with cigarette smoke exposure for 21 weeks with subsequent LPS induction twice on the first and 15th day followed by compound administration every day via gavage for 4 weeks", "type": "functional, organism-based"}, "[34]": {"tested_on": "RAW264.7", "test": "Anti-inflammatory activity in LPS-induced mouse RAW264.7 cells assessed as decrease in p38 MAPK protein level by Western blotting analysis", "type": "functional, cell-based"}, "[35]": {"target": "Voltage-gated inwardly rectifying potassium channel KCNH2 (Homo sapiens, UniProt Q12809)", "sequence (Q12809 whole entry)": "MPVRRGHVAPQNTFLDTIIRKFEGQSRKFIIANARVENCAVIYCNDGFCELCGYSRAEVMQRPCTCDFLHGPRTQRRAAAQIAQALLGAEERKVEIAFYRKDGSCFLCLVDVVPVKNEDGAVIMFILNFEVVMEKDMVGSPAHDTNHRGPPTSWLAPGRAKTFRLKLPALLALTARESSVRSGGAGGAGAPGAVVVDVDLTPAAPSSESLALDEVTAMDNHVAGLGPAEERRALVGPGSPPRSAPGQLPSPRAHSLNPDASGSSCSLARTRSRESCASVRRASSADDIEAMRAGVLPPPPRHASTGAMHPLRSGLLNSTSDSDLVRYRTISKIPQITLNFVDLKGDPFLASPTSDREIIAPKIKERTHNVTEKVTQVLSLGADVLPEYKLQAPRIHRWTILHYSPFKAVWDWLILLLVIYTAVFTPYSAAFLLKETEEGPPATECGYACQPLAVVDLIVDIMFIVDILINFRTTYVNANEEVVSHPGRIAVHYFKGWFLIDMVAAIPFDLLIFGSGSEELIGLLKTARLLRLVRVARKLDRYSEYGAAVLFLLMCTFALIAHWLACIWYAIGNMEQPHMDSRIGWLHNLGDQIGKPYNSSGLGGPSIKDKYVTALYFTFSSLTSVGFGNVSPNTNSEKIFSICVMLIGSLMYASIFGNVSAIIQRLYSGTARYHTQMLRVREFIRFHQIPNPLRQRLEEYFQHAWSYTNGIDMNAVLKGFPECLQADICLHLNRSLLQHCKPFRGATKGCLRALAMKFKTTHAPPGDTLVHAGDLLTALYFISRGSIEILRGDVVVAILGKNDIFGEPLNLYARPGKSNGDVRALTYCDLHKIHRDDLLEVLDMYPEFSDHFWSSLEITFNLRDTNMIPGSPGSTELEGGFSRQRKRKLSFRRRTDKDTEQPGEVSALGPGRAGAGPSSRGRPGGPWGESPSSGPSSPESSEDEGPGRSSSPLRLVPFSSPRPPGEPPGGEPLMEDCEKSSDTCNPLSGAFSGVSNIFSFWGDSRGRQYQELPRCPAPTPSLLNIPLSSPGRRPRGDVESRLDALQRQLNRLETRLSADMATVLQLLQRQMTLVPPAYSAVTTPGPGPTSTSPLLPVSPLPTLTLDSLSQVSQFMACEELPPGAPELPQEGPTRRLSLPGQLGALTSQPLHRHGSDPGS", "test": "Inhibition of hERG expressed in HEK293T cells", "type": "toxicity, cell-based"}, "[36]": {"tested_on": "BEAS-2B", "test": "Anti-inflammatory activity in LPS-induced human BEAS-2B cells assessed as inhibition of TNF-alpha secretion level at 10 uM preincubated with compound for 1 hr followed by LPS addition and measured after 24 hrs by ELISA", "type": "functional, cell-based", "conditions": "time 25.0 hrs"}},
  "note": "The source made the active and inactive calls. The rule behind the calls is not given here.",
  "data": [
    {"smiles": "O=C(Nc1nccs1)c1cccc2[nH]c(-c3ccc(OC(F)F)c(OCC4CC4)c3)nc12", "values": [
      {"measurement": "half-life", "setting": "[1]", "result": 1.97, "unit": "h"},
      {"measurement": "Activity", "setting": "[2]", "result": "Non-toxic"},
      {"measurement": "Activity", "setting": "[3]", "result": "Non-toxic"},
      {"measurement": "Activity", "setting": "[4]", "result": "Dose-dependent-effect"},
      {"measurement": "Activity", "setting": "[5]", "result": "Active"},
      {"measurement": "Activity", "setting": "[6]", "result": "Non-toxic"},
      {"measurement": "Tmax", "setting": "[7]", "result": 3, "unit": "h"},
      {"measurement": "Activity", "setting": "[8]", "result": "Active"},
      {"measurement": "Activity", "setting": "[9]", "result": "Active"},
      {"measurement": "half-life", "setting": "[10]", "result": 1.03, "unit": "h"},
      {"measurement": "Activity", "setting": "[11]", "result": "Non-toxic"},
      {"measurement": "AUC(0-t) at 24 h", "setting": "[12]", "result": 23200, "unit": "ng·h/mL"},
      {"measurement": "Activity", "setting": "[13]", "result": "Active"},
      {"measurement": "half-life", "setting": "[14]", "result": 0.721, "unit": "h"},
      {"measurement": "Activity", "setting": "[15]", "result": "Non-toxic"},
      {"measurement": "AUC(0-inf)", "setting": "[16]", "result": 23200, "unit": "ng·h/mL"},
      {"measurement": "bioavailability", "setting": "[17]", "result": 4.59, "unit": "%"},
      {"measurement": "Activity", "setting": "[18]", "result": "Active"},
      {"measurement": "IC50", "setting": "[19]", "result": 29.5, "unit": "µM"},
      {"measurement": "AUC(0-inf)", "setting": "[20]", "result": 2160, "unit": "ng·h/mL"},
      {"measurement": "half-life", "setting": "[21]", "result": 0.67, "unit": "h"},
      {"measurement": "Activity", "setting": "[22]", "result": "Non-toxic"},
      {"measurement": "Activity", "setting": "[23]", "result": "Non-toxic"},
      {"measurement": "Activity", "setting": "[24]", "result": "Active"},
      {"measurement": "inhibition", "setting": "[25]", "result": 89.9, "unit": "%"},
      {"measurement": "Activity", "setting": "[26]", "result": "Active"},
      {"measurement": "Activity", "setting": "[27]", "result": "Non-toxic"},
      {"measurement": "Activity", "setting": "[28]", "result": "Non-toxic"},
      {"measurement": "Activity", "setting": "[29]", "result": "Non-toxic"},
      {"measurement": "Activity", "setting": "[30]", "result": "Active"},
      {"measurement": "Activity", "setting": "[31]", "result": "Active"},
      {"measurement": "IC50", "setting": "[32]", "result": 0.0488, "unit": "µM"},
      {"measurement": "Activity", "setting": "[33]", "result": "Active"},
      {"measurement": "Activity", "setting": "[34]", "result": "Active"},
      {"measurement": "IC50", "setting": "[35]", "result": "> 30", "unit": "µM"},
      {"measurement": "Activity", "setting": "[36]", "result": "Active"}
    ]}
  ]
}
